According to ChEMBL document CHEMBL5726883, “Pyrazines as modulators of GPR6” (2019):

Molecular target: G-protein coupled receptor 6 (Homo sapiens, UniProt P46095)
Assay: A.1 Inhibition of cAMP Activity of GPR6 In Vitro Assay: This cell based assay measures the ability of compounds to inhibit the constitutive cAMP activity of GPR6 receptor expressed in CHO-K1 cells. CHO cells were stably expressed with GPR6 receptor, whose expression is controlled by a tetracycline inducible element. The cells were cultured in medium containing F12K, 10% FBS, 1% Penn/Strep, 200 ug/mL Hygromycin. GPR6 receptor expression was induced for 20 hrs with 10 µg/ml doxycycline (sigma D9891) in growth media. After addition of doxycycline cells were plated at a density of 250-500 cells per well in half-volume black clear bottom plates (Costar) and place in an incubator (37°, 5% C(O)2) for 20 hours prior to cAMP assays.Culture media was removed from cells and they were washed with […] of Ringer's Buffer (MgCl2 0.047 mg/mL, NaH2PO4 0.18 mg/mL, Na2HPO4 0.1 mg/mL, KCl 0.34 mg/mL, NaHC(O)3 1.26 mg/mL, D-glucose 1.8 mg/mL, NaCl 7 mg/mL; pH=7.4). Compounds suspended in DMSO were diluted in Ringer's Buffer containing 0.5% fatty acid free BSA and incubated on cells for 45 min at 37° and 5% C(O)2. After incubation cells were incubated for 10 min at room temp with Eu-cAMP tracer solution from a Perkin Elmer Lance HTRF UltracAMP assay kit (TRF0264).

Sequence of G-protein coupled receptor 6 (P46095 whole entry): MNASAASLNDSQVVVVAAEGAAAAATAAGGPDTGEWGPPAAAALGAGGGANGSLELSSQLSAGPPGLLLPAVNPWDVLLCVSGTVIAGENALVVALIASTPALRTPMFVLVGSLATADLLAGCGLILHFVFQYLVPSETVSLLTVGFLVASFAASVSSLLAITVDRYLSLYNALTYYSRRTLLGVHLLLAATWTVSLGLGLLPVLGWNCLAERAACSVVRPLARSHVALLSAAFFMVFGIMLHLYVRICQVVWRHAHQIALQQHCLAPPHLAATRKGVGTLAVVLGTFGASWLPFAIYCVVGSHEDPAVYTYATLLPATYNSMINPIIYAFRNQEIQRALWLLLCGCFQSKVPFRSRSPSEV

EC50: 62.5 µM
SMILES: CC(C)Nc1nc(COCCN(C)C)c(C#N)nc1N1CCN(Cc2ccc(F)cc2F)CC1
